From ChEMBL document CHEMBL1155991, “Discovery of isoxazole voltage gated sodium channel blockers for treatment of chronic pain” (Bioorg Med Chem Lett, 2009) come the findings set out here.

Each structure is given as a SMILES string. Where only a bound is given, the exact number is not on record here.

In one series the target is hERG (KCNH2) (Homo sapiens, UniProt Q12809). The series can be described thus: (§1) Displacement of [35S]MK-0499 from human ERG expressed in HEK293 cells at 10 uM […]. It is filed as cell-based. As to conditions: HEK293 cells expressing human ERG, probe [35S]MK-0499.
hERG (KCNH2), sequence (Q12809 whole entry): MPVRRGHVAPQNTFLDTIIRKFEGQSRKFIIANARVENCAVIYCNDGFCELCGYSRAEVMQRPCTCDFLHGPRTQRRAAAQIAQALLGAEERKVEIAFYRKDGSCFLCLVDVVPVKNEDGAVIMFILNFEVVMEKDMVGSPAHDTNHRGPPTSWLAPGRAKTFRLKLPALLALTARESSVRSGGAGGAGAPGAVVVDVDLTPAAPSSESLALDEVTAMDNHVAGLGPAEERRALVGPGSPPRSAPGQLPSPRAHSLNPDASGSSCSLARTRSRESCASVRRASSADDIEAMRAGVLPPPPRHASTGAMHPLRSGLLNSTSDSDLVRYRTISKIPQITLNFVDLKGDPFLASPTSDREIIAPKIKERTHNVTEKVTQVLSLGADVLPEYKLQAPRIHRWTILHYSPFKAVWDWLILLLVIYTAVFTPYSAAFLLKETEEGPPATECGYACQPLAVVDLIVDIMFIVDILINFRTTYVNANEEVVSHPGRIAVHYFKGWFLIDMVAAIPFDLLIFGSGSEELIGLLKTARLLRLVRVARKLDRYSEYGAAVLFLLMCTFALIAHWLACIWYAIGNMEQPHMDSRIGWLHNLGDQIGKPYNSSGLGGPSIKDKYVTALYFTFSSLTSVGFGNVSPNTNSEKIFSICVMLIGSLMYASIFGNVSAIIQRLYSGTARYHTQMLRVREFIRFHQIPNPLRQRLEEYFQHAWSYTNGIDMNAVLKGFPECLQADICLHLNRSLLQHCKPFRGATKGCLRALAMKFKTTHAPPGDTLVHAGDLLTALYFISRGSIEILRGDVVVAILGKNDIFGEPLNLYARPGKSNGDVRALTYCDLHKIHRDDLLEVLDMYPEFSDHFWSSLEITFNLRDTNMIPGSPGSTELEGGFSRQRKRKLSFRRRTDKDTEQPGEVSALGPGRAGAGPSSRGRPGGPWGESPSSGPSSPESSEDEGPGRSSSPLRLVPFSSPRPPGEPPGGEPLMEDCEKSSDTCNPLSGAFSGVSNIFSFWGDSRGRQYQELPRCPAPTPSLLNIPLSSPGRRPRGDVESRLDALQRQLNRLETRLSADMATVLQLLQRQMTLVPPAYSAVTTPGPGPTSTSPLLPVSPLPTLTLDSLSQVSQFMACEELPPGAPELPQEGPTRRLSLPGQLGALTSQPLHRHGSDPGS
Series [1] addresses T1, Sodium channel protein type 9 subunit alpha (Homo sapiens, UniProt Q15858). The series can be described thus: Inhibition of human Nav1.7 channel expressed in HEK293 cells by FRET assay. It is filed as cell-based.
Target sequence in this assay (Q15858 whole entry): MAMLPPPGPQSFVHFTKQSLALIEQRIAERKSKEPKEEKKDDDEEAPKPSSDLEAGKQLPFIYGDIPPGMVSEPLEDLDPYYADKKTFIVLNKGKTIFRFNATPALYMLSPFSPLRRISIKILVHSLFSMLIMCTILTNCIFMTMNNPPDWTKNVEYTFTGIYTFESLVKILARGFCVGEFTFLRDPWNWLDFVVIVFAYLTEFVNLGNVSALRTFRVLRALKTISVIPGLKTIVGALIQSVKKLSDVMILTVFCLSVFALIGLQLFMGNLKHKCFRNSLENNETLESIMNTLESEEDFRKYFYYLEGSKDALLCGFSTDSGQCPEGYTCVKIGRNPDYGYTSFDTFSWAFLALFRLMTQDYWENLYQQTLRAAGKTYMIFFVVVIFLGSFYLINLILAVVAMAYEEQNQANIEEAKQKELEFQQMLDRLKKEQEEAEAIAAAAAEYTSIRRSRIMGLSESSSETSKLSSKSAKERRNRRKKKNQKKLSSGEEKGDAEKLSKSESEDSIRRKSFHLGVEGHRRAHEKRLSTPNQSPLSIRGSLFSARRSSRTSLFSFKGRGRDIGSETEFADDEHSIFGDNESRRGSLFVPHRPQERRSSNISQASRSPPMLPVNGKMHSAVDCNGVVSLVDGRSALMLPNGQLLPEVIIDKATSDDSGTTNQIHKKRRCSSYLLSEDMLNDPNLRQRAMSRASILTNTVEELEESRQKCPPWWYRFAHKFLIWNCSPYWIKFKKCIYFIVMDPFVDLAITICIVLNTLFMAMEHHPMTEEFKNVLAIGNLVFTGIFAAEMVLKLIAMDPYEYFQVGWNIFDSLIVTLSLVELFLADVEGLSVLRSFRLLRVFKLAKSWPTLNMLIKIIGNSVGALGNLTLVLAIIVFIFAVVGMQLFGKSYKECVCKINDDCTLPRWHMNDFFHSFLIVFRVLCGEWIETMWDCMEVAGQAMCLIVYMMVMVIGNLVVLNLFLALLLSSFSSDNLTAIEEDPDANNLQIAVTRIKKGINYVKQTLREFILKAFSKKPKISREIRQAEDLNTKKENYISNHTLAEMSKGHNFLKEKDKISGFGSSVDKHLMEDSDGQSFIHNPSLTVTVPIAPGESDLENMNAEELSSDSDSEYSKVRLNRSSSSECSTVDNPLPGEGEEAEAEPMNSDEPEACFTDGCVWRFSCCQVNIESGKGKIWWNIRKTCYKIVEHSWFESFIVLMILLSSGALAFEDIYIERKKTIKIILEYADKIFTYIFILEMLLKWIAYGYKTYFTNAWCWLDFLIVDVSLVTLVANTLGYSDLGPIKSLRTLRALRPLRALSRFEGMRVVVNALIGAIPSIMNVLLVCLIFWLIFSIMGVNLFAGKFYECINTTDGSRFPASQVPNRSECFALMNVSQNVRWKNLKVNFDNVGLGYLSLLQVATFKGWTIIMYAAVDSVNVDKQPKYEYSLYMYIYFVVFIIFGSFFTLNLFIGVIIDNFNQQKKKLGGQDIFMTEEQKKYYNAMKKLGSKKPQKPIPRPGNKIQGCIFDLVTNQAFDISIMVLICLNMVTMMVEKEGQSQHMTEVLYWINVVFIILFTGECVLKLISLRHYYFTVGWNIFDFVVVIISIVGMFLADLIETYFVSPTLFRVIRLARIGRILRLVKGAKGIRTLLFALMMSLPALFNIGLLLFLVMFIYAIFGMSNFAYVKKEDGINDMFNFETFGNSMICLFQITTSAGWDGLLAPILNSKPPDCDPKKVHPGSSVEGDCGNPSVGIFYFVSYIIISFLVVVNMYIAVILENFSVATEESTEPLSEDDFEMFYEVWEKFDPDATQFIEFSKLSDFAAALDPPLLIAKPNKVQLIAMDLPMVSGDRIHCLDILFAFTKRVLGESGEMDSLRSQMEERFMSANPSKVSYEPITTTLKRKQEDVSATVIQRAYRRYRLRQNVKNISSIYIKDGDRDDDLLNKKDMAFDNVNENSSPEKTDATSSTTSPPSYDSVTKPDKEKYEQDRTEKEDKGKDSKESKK
Series [2] concerns the target T1, Sodium channel protein type 9 subunit alpha. Briefly: Inhibition of human Nav1.7 channel expressed in HEK293 cells at 1 uM by FRET assay. Type of series: cell-based.
Target sequence in this assay (Q15858 whole entry, looked up): as the sequence (Q15858 whole entry) above
Series [3] concerns the target Voltage-gated inwardly rectifying potassium channel KCNH2 (Homo sapiens, UniProt Q12809). Described as §1. Type of series: cell-based. As to conditions: hek293, 10 µM, 10 µM.
In series [4] the test system is Rattus norvegicus. The series can be described thus: Analgesic activity in SNL rat neuropathic pain model assessed as reversal of allodynia at 10 mg/kg, po after 4 hrs. Type of series: functional.
Series [5] concerns Rattus norvegicus. The series can be described thus: Analgesic activity in SNL rat neuropathic pain model assessed as reversal of allodynia at 10 mg/kg, po after 2 hrs. It is filed as functional.
In series [6] the test system is Rattus norvegicus. Briefly: Analgesic activity in SNL rat neuropathic pain model assessed as reversal of allodynia at 10 mg/kg, po after 3 hrs. Type of series: functional.
Series [7] can be described thus: Half life in Sprague-Dawley rat at 1 mg/kg, iv or 3 mg/kg, po. Type of series: ADME, organism-based. To be noted: in vivo.
Series [8] in a line: Oral bioavailability in Sprague-Dawley rat at 3 mg/kg. It is filed as ADME, organism-based. As to conditions: in vivo.
The nature of series [9]: Plasma clearance in Sprague-Dawley rat at 1 mg/kg, iv or 3 mg/kg, po. Type of series: ADME, organism-based.

Voltage-gated inwardly rectifying potassium channel KCNH2, sequence (Q12809 whole entry): as the sequence (Q12809 whole entry) above

At hERG (KCNH2), `O=C(NC1(c2cccc(C(F)(F)F)c2)CCC1)[C@@H]1CCC[C@H]1c1cc(-c2ccccc2)on1` came in with an inhibition at 10 µM of 89%. In [1], this compound came in with an IC50 of 590 nM. In the case of `O=C(NC1(c2ccccc2)CC1)[C@@H]1CCC[C@H]1c1cc(-c2ccccc2)on1`, the inhibition at 10 µM at hERG (KCNH2) was 47%. Besides, the IC50 in series [1] was found to be 440 nM. In turn, `O=C(NC1(c2cccc(F)c2)CCC1)[C@@H]1CCC[C@H]1c1cc(-c2ccccc2)on1` showed an inhibition at 10 µM at hERG (KCNH2) of 64%. This compound also registered an IC50 in [1] of 110 nM.

In the case of `O=C(NC1(c2ccccc2)CCC1)[C@@H]1CCC[C@H]1c1cc(-c2cc(C(F)(F)F)ccc2O)on1`, the inhibition in [2] came out at 1%. In the case of `O=C(NC1(c2ccccc2)CCC1)[C@@H]1CCC[C@H]1c1cc(-c2ccccc2Cl)on1`, the inhibition at 10 µM on hERG (KCNH2) was 76%. For the same compound, in [1], 180 nM corresponded to half-maximal inhibition (IC50). In turn, `O=C(NC1(c2ccccc2)CCC1)[C@@H]1CCC[C@H]1c1cc(-c2cccc(OC(F)(F)F)c2O)on1` showed an inhibition at 10 µM on hERG (KCNH2) of 47%. In series [1], this compound yielded an IC50 of 260 nM. `O=C(NC1(c2ccccc2)CCC1)[C@@H]1CCC[C@H]1c1cc(-c2cccc(C(F)(F)F)c2O)on1` (stereo in doubt; 30): the inhibition at 10 µM at hERG (KCNH2) was found to be 45%. In series [1], this compound displayed an IC50 of 340 nM.

Regarding `COc1ccccc1-c1cc([C@@H]2CCC[C@H]2C(=O)NC2(c3ccccc3)CCC2)no1`, 10 µM produced 54% inhibition at hERG (KCNH2). This compound returned an IC50 in series [1] of 390 nM.

With `O=C(NC1(c2ccccc2)CC(F)(F)C1)[C@@H]1CCC[C@H]1c1cc(-c2ccccc2)on1`, the inhibition in series [2] was determined as 41%. The same compound had an inhibition at 10 µM on hERG (KCNH2) of 27%. For the compound `O=C(NC1(c2ccccc2)CCC1)[C@@H]1CCC[C@H]1c1cc(-c2ccc(C(F)(F)F)cc2O)on1`, the inhibition at 10 µM on hERG (KCNH2) stood at 72%. Besides, the 50% inhibitory concentration (IC50) in series [1] amounted to 300 nM. The matching figures for `COc1cccc(-c2cc([C@@H]3CCC[C@H]3C(=O)NC3(c4ccccc4)CCC3)no2)c1`: 62% and 20 nM. In the case of `O=C(NC1(c2ccccc2)CC(F)C1)[C@@H]1CCC[C@H]1c1cc(-c2ccccc2)on1` (stereo in doubt; 18), in series [3], the “inhibition (INH)” value was 59%. This compound also displayed an IC50 in [1] of 160 nM.

In the case of `O=C(NC1(c2ccccc2)CCC1)[C@@H]1CCC[C@H]1c1cc(-c2cccc(O)c2)on1`, at hERG (KCNH2), the inhibition at 10 µM was determined as 64%. This compound also registered an IC50 in series [1] of 210 nM. The matching figures for `COc1ccc(-c2cc([C@@H]3CCC[C@H]3C(=O)NC3(c4ccccc4)CCC3)no2)cc1`: 44% and 180 nM.

As for `CN(Cc1ccc(-c2ccccc2S(N)(=O)=O)cc1)C(=O)[C@@H]1CCC[C@H]1C(=O)NCc1ccc(OC(F)(F)F)cc1`, the Activity was determined as 28% in the series with Rattus norvegicus [4], 30% with Rattus norvegicus [5] and 35% with Rattus norvegicus [6]. On to `O=C(NC1(c2ccccc2)CCC1)[C@@H]1CCC[C@H]1c1cc(-c2ccccc2)on1`, for which, at hERG (KCNH2), 10 µM produced 37% inhibition. Further, inhibition in series [1] was half-maximal at 120 nM (IC50). The corresponding values for `O=C(NC1(c2ccccc2)CCC1)[C@@H]1CCC[C@H]1c1cc(-c2ccccc2C(F)(F)F)on1` are 91% and 740 nM. The compound `O=C(NC1(c2ccccc2)CCC1)[C@@H]1CCC[C@H]1c1cc(-c2cccc(OC(F)(F)F)c2)on1` had a half-life in [7] of 2.6 h. In series [8], the bioavailability came out at 46%. The compound also displayed an inhibition at 10 µM at hERG (KCNH2) of 55%. The same compound registered an IC50 in [1] of 370 nM. Further, in series [9], the clearance is 89 mL/min/kg. On to `O=C(NCc1ccccc1)[C@@H]1CCC[C@H]1c1cc(-c2ccccc2)on1`, for which, in [2], the inhibition was 37%. This compound also gave an inhibition at 10 µM at hERG (KCNH2) of 35%. In the case of `O=C(NC1(c2ccccc2)CCC1)[C@@H]1CCC[C@H]1c1cc(-c2c(O)cccc2C(F)(F)F)on1`, the inhibition in series [2] is 1%. On hERG (KCNH2), `CC(C)(NC(=O)[C@@H]1CCC[C@H]1c1cc(-c2ccccc2)on1)c1ccccc1` yielded an inhibition at 10 µM of 45%. It took 430 nM to reach half-maximal inhibition in series [1] (IC50). In series [2], `CC1(c2ccccc2)CC([C@@H]2CCC[C@H]2C(=O)NC2(c3ccccc3)CCC2)=NO1` (some centres undefined) returned an inhibition of 8%. For `O=C(NC1(c2ccccc2F)CCC1)[C@@H]1CCC[C@H]1c1cc(-c2ccccc2)on1`, on hERG (KCNH2), the inhibition at 10 µM amounted to 40%. The compound also showed an IC50 in series [1] of 450 nM. `O=C(NC1(c2ccccc2)CCC1)[C@@H]1CCC[C@H]1c1cc(-c2cccc(C(F)(F)F)c2O)on1` (stereo in doubt; 30a) yielded an IC50 in [1] of 430 nM. For `O=C(NC1(c2ccccc2)CCC1)[C@@H]1CCC[C@H]1c1cc(-c2ccccc2O)on1`, the inhibition in series [2] is 44%. The inhibition at 10 µM on hERG (KCNH2) was found to be 54%. Turning to `O=C(NC1(c2ccc(F)cc2)CCC1)[C@@H]1CCC[C@H]1c1cc(-c2ccccc2)on1`, the inhibition at 10 µM on hERG (KCNH2) was determined as 81%. This compound returned an IC50 in [1] of 84 nM. Turning to `O=C(NC1(c2ccccc2)CCC1)[C@@H]1CCC[C@H]1c1cc(-c2cccc(C(F)(F)F)n2)on1`, the half-life in [7] was 1.51 h. In series [8], this compound had a bioavailability of 36%. Besides, the inhibition at 10 µM on hERG (KCNH2) is 22%. In series [1], this compound returned an IC50 of 220 nM. The clearance in series [9] came out at 135 mL/min/kg. Regarding `O=C(NC1(c2ccccc2)CCC1)[C@@H]1CCC[C@H]1c1cc(-c2ccc(O)cc2)on1`, on hERG (KCNH2), the inhibition at 10 µM turned out to be 15%. This compound came in with an IC50 in series [1] of 130 nM. In series [2], `O=C(NC1(c2ccccc2)CCC1)[C@@H]1CCC[C@H]1c1cc(-c2cccc(=O)[nH]2)on1` returned an inhibition of 0%. In series [1], `O=C(NC1(c2ccccc2)CCCCC1)[C@@H]1CCC[C@H]1c1cc(-c2ccccc2)on1` returned an IC50 of 580 nM. Still for that read-out and setting: the same measure for `O=C(NC1(c2ccccc2)CC(O)C1)[C@@H]1CCC[C@H]1c1cc(-c2ccccc2)on1` (some centres undefined): > 5000 nM.

As to `O=C(NC1(c2ccccc2)CCCC1)[C@@H]1CCC[C@H]1c1cc(-c2ccccc2)on1`, the inhibition at 10 µM on hERG (KCNH2) was 85%. Half-maximal inhibition in series [1] (IC50) was put at 220 nM.

In turn, `COC1CC(NC(=O)[C@@H]2CCC[C@H]2c2cc(-c3ccccc3)on2)(c2ccccc2)C1` (some centres undefined) came in with an inhibition at 10 µM on hERG (KCNH2) of 51%. The compound also showed a half-inhibitory concentration (IC50) in [1] of 380 nM. On to `O=C(NC1(c2ccccc2)CC(F)C1)[C@@H]1CCC[C@H]1c1cc(-c2ccccc2)on1` (stereo in doubt; 17), for which, on hERG (KCNH2), 10 µM produced 46% inhibition. In [1], this compound returned an IC50 of 180 nM. In turn, `O=C(NC1(c2ccccc2)CCC1)[C@@H]1CCC[C@H]1c1cc(-c2ccc(O)c(C(F)(F)F)c2)on1` showed an inhibition in series [2] of 0%. On hERG (KCNH2), `COc1cccc(-c2cc([C@@H]3CCC[C@H]3C(=O)NC3(c4ccccc4)CCC3)no2)n1` gave an inhibition at 10 µM of 54%. Inhibition in [1] was half-maximal at 190 nM (IC50). The matching figures for `CC(NC(=O)[C@@H]1CCC[C@H]1c1cc(-c2ccccc2)on1)c1ccccc1` (some centres undefined): 47% and 1700 nM.

As to `O=C(NC1(c2ccccc2)CCC1)[C@@H]1CCC[C@H]1c1cc(-c2cccc(C(F)(F)F)c2O)on1` (stereo in doubt; 30b), the IC50 in series [1] was > 10000 nM.
